Assay results from ChEMBL document CHEMBL1140691, “New type of anti-diabetic compounds from the processed leaves of Hydrangea macrophylla var. thunbergii (Hydrangeae Dulcis Folium)” (2007).

Legend:
Assay type in all cases: functional
3T3-L1 [1] = assay: Increase in triglyceride levels in mouse 3T3L1 cells at 3 uM
3T3-L1 [2] = assay: Increase in triglyceride levels in mouse 3T3L1 cells at 10 uM
3T3-L1 [3] = assay: Increase in triglyceride levels in mouse 3T3L1 cells at 1 uM
3T3-L1 [4] = assay: Increase in triglyceride levels in mouse 3T3L1 cells at 30 uM
3T3-L1 [5] = assay: Increase in triglyceride levels in mouse 3T3L1 cells at 100 uM
Mus musculus [6] = assay: Effect on blood triglyceride levels in KKAy mouse at 100 mg/kg, po after 2 weeks
Mus musculus [7] = assay: Decrease in blood glucose levels in KKAy mouse at 100 mg/kg, po
3T3-L1 [8] = assay: Increase in adiponectin gene expression in mouse 3T3L1 cells at 3 uM after 2 days relative to beta-actin mRNA expression
3T3-L1 [9] = assay: Increase in PPARgamma2 gene expression in mouse 3T3L1 cells at 3 uM after 2 days relative to beta-actin mRNA expression
Mus musculus [10] = assay: Decrease in blood glucose levels in KKAy mouse at 100 mg/kg, po after 1 week
Mus musculus [11] = assay: Effect on blood triglyceride levels in KKAy mouse at 100 mg/kg, po after 1 week
Mus musculus [12] = assay: Decrease in blood free fatty acid levels in KKAy mouse at 100 mg/kg, po
3T3-L1 [13] = assay: Decrease in IL6 gene expression in mouse 3T3L1 cells at 3 uM after 2 days relative to beta-actin mRNA expression
3T3-L1 [14] = assay: Increase in adiponectin release in mouse 3T3L1 cells at 30 uM on day 6 by ELISA
3T3-L1 [15] = assay: Increase in 2-Deoxyglucose-uptake in mouse 3T3L1 cells at 3 uM by liquid scintillation counter
Mus musculus [16] = assay: Effect on blood triglyceride levels in KKAy mouse at 100 mg/kg, po
3T3-L1 [17] = assay: Increase in adiponectin release in mouse 3T3L1 cells at 30 uM on day 4 by ELISA
Mus musculus [18] = assay: Decrease in blood free fatty acid levels in KKAy mouse at 100 mg/kg, po after 2 weeks
3T3-L1 [19] = assay: Increase in GLUT4 gene expression in mouse 3T3L1 cells at 3 uM after 2 days relative to beta-actin mRNA expression
Mus musculus [20] = assay: Decrease in blood free fatty acid levels in KKAy mouse at 100 mg/kg, po after 1 week

Compound | Activity (3T3-L1 [1]) [%] | Activity (3T3-L1 [2]) [%] | Activity (3T3-L1 [3]) [%] | Activity (3T3-L1 [4]) [%] | Activity (3T3-L1 [5]) [%] | Activity (Mus musculus [6]) [mg/dL] | Activity (Mus musculus [7]) [mg/dL] | Ratio (3T3-L1 [8]) | Ratio (3T3-L1 [9]) | Activity (Mus musculus [10]) [mg/dL] | Activity (Mus musculus [11]) [mg/dL] | Activity (Mus musculus [12]) [mEq/L] | Ratio (3T3-L1 [13]) | Activity (3T3-L1 [14]) [ng/mL] | Activity (3T3-L1 [15]) [%] | Activity (Mus musculus [16]) [mg/dL] | Activity (3T3-L1 [17]) [ng/mL] | Activity (Mus musculus [18]) [mEq/L] | Ratio (3T3-L1 [19]) | Activity (Mus musculus [20]) [mEq/L]
O=c1oc(-c2ccc(O)c(O)c2)cc2cc(O)cc(O)c12 [THUNBERGINOL B] | -8 | -7.8 | -3.8 | 7.2 | 54.1 |  |  |  |  |  |  |  |  |  |  |  |  |  |  | 
O=C1OC(c2ccc(O)cc2)Cc2cc(O)cc(O)c21 (stereo not drawn) [THUNBERGINOL C] | -7.5 | -11.1 | -9.3 | -17.6 | 1.4 |  |  |  |  |  |  |  |  |  |  |  |  |  |  | 
O=C1OC(c2ccc(O)c(O)c2)Cc2cc(O)cc(O)c21 (stereo not drawn) [THUNBERGINOL D] | 2.8 | -0.8 | -1.2 | 4 | 12.5 |  |  |  |  |  |  |  |  |  |  |  |  |  |  | 
COc1ccc([C@H]2Cc3cc(O)cc(O)c3C(=O)O2)cc1O [THUNBERGINOL E] | -7.5 | -8 | -6.3 | 3.4 | -4 |  |  |  |  |  |  |  |  |  |  |  |  |  |  | 
O=C1O/C(=C\c2ccc(O)c(O)c2)c2cccc(O)c21 [THUNBERGINOL F] | 6.2 | 6.2 | 2.1 | 8.3 | -54.8 |  |  |  |  |  |  |  |  |  |  |  |  |  |  | 
Cc1c(C)c2c(c(C)c1O)CCC(C)(COc1ccc(CC3SC(=O)NC3=O)cc1)O2 (stereo not drawn) [TROGLITAZONE] | 40.5 | 39.6 | 33.8 |  |  | 464.6 | 307.5 | 3.01 | 1.09 | 293.3 | 303.4 | 0.95 | 0.89 | 101.2 | 388 | 329.4 | 43 | 0.8 | 2.92 | 0.62
